Data as given in patent US4929751A, “Vinyl tricarbonyl compounds and methods of making the same” (Yale University, priority 1987, dated 1990).
Where two headings read alike, the source gives them in different places.

Tests used:
Format in all cases: cell-based
colon cell lines = test: disease category selectivity
Text: (§1) As described below, the data in Table 1 serve to display the testing results on disease category selectivity in a bar graph format. Bars projecting to the right of the reference (vertical line of asterisks) indicate greater than average sensitivity to the test compound. Each bar represents one power of ten in sensitivity, so that the results for OVCAR-5 (ovarian tumor) indicate a remarkable […] increase in sensitivity over the reference test.
(§2) Table 1 reports and illustrates the results obtained by testing t-butyl 2,3-dioxo-pent-4-enoate hydrate. The concentration of this compound found to inhibit the growth of each cell line listed under "CELL" by 50% is reported under "LOG(IC50)" as the logarithm of the concentration. The units of concentration are either molarity in which case an "M" is shown in parentheses next to the LOG(IC50) label, or micrograms per ml, in which case a "W" (for weight) is shown in parenthesis. The cell line names are grouped by disease type and the disease type names are listed on the far left.
(§3) The graph on the right depicts the data on the left in a format called a "MEAN GRAPH" which is designed to aid in the identification of differential growth inhibition. […] The interest in using this concept of differential growth inhibition as a criterion of activity in the screening system is to encourage the discovery of new types of anticancer agents having greater tissue specificity than cancer chemotherapeutic agents in use today.
(§4) The idea for the Mean Graph resulted from trying to detect differential growth inhibition in a bar graph format Experimentation led to a graph centered at the arithmetic mean (ML) of the logarithm of the IC50'a of all the cell line responses measured for a compound. The Mean Graph is constructed around a vertical reference (indicating ML) by projecting bars to the right or to the left. […] The lengths of the bars are proportional to the differences between the logarithms of the specific cell line IC50's and the overall mean value ML. These lengths represent differences in logarithms which are equivalent to the ratios of the specific IC50's to the geometric mean of all the IC50's. Therefore, a useful property of the Mean Graph format is the ability to compare patterns derived from IC50's measured in different units, e.g, micrograms per ml and molarity. The units cancel in the division process.
(§5) Differential growth inhibition is depicted as a bar projecting some distance to the right of ML. A bar projecting three log units to the right of ML, for example, would reflect a cellular sensitivity 1000 times greater than ML. While any degree of sensitivity greater than ML might theoretically be considered differential growth inhibition, in practice one must consider the experimental error in the measurement and at what point the degree of differential growth inhibition becomes meaningful in biological terms. The three values listed a the bottom of the graph provide the value of ML as "AVE LOG(IC50)", the greatest difference from ML as "DELTA" and the difference between the least sensitive cell line and the most sensitive cell line as the "RANGE".

leukemia cell lines = test: disease category selectivity; details: LEUK
Text: as §1, §2, §3, §4, §5

ovarian cell lines = test: disease category selectivity
Text: as §1, §2, §3, §4, §5

PS cell lines = test: disease category selectivity
Text: as §1, §2, §3, §4, §5

[1] = tested on: resistant breast cancer cell lines; test: disease category selectivity; details: RESISTB
Text: as §1, §2, §3, §4, §5

[2] = tested on: central nervous system cell lines; test: disease category selectivity; details: CNS
Text: as §1, §2, §3, §4, §5

[3] = tested on: small cell lung cancer cell lines; test: disease category selectivity; details: SCLC
Text: as §1, §2, §3, §4, §5

breast cell lines = test: disease category selectivity
Text: as §1, §2, §3, §4, §5

[4] = tested on: RESISTL (resistant lung cancer) cell lines; test: disease category selectivity
Text: as §1, §2, §3, §4, §5

melanoma cell lines = test: disease category selectivity; details: MEL
Text: as §1, §2, §3, §4, §5

[5] = tested on: nonsmall cell lung cancer cell lines; test: disease category selectivity; details: NSCLC
Text: as §1, §2, §3, §4, §5

renal cell lines = test: disease category selectivity
Text: as §1, §2, §3, §4, §5

OVCAR-8 (ovarian) = test: growth inhibition of tumor cell line; details: Homo sapiens
Text: (§6) t-Butyl 2,3-dioxo-pent-4-enoate hydrate (A) was contacted with various cell lines as indicated on Table 1 hereinbelow in the column designated as "CELL" or "TUMOR". […]
as §2

A704 (renal) = test: growth inhibition of tumor cell line; details: Homo sapiens
Text: as §6, §2

[6] = tested on: EKV-X (nonsmall cell lung cancer); test: growth inhibition of tumor cell line; details: Homo sapiens, EKVX
Text: as §6, §2

OVCAR-4 (ovarian) = test: growth inhibition of tumor cell line; details: Homo sapiens, logarithm of the concentration inhibiting growth by 50%
Text: as §6, §2

DLD-1 (colon) = test: growth inhibition of tumor cell line; details: Homo sapiens
Text: as §6, §2

[7] = tested on: MCF-7/ADR (resistant breast cancer); test: growth inhibition of tumor cell line; details: Homo sapiens
Text: as §6, §2

[8] = tested on: A549 (nonsmall cell lung cancer); test: growth inhibition of tumor cell line; details: Homo sapiens, logarithm of the concentration inhibiting growth by 50%
Text: as §6, §2

tumor cells = test: growth inhibition of tumor cells, whole panel (mean graph)
Text: as §6, §2, §3, §4, §5

OVCAR-5 (ovarian) = test: growth inhibition of tumor cell line; details: for IC50: Homo sapiens, OVCAR-5
Text: as §6, §1, §2

[9] = mean LOG(IC50) of category, 4 cell lines, read-out: MEAN CAT (converted)
[10] = mean LOG(IC50) of category, 5 cell lines, read-out: MEAN CAT (converted)
[11] = mean LOG(IC50) of category, 1 cell line, read-out: MEAN CAT (converted)
[12] = logarithm of the concentration inhibiting growth by 50%, read-out: LOG(IC50) (converted)

With `C=CC(=O)C(O)(O)C(=O)OC(C)(C)C` [t-butyl 2,3-dioxo-pent-4-enoate hydrate] the “DIFF CAT” value (colon cell lines; difference from mean) was -0.1, the IC50 (colon cell lines; [9]) was 63.1 µM and the “DIFF CAT” value (leukemia cell lines; difference from mean) was -0.4. For the same compound, the IC50 (leukemia cell lines; mean LOG(IC50) of category, 2 cell lines, read-out: MEAN CAT (converted)) was 31.6 µM, the “DIFF CAT” value (ovarian cell lines; difference from mean) was -0.2 and the IC50 (ovarian cell lines; [10]) was 50.1 µM. The “DIFF CAT” value (PS cell lines; difference from mean) was 0.1, the IC50 (PS cell lines; [11]) was 100 µM and the “DIFF CAT” value ([1]; difference from mean) was 0.1. The IC50 [1, 11] was 100 µM, the “DIFF CAT” value ([2]; difference from mean) was 0.2 and the IC50 [2, 9] was 100 µM. The “DIFF CAT” value ([3]; difference from mean) was 0, the IC50 [3, 10] was 79.4 µM and the “DIFF CAT” value (breast cell lines; difference from mean) was 0.1. For the same compound, the IC50 (breast cell lines; [11]) was 100 µM, the “DIFF CAT” value ([4]; difference from mean) was 0.2 and the IC50 [4, 11] was 126 µM. For the same compound, the “DIFF CAT” value (melanoma cell lines; difference from mean) was 0, the IC50 (melanoma cell lines; [10]) was 79.4 µM and the “DIFF CAT” value ([5]; difference from mean) was 0. The IC50 ([5]; mean LOG(IC50) of category, 10 cell lines, read-out: MEAN CAT (converted)) was 79.4 µM, the “DIFF CAT” value (renal cell lines; difference from mean) was 0.1 and the IC50 (renal cell lines; mean LOG(IC50) of category, 3 cell lines, read-out: MEAN CAT (converted)) was 79.4 µM. The IC90 (OVCAR-8 (ovarian)) was 263 µM, the IC50 (OVCAR-8 (ovarian); [12]) was 126 µM and the IC50 (OVCAR-8 (ovarian); read-out: IC-50 MEAN) was 114 µM. It also gave an IC90 (A704 (renal)) of 229 µM, an IC50 (A704 (renal); [12]) of 50.1 µM and an IC50 (A704 (renal); read-out: IC-50 MEAN) of 46.6 µM. For the same compound, the IC50 [6, 12] was 200 µM, the IC50 ([6]; read-out: IC-50 MEAN) was 226 µM and the IC50 (OVCAR-4 (ovarian)) was 251 µM. It also gave an IC90 (DLD-1 (colon)) of 187 µM, an IC50 (DLD-1 (colon); [12]) of 39.8 µM and an IC50 (DLD-1 (colon); read-out: IC-50 MEAN) of 38.4 µM. It also gave an IC50 ([7]; NCI/ADR-RES, MCF-7/ADR, read-out: IC-50 MEAN) of 96 µM, an IC50 ([7]; MCF-7/A, logarithm of the concentration inhibiting growth by 50%, read-out: LOG(IC50) (converted)) of 100 µM and an IC50 [8] of over 251 µM. For the same compound, the IC50 (tumor cells; arithmetic mean of the logarithm of the IC50 of all cell lines, read-out: AV TC50 (AVE LOG(IC50), ML) (converted)) was 74.1 µM, the RANGE (tumor cells; difference between least and most sensitive cell line, log units) was 2.3 and the DELTA (tumor cells; greatest difference from ML, log units) was 1.8. For the same compound, the IC50 (tumor cells; mean over the cell lines, read-out: IC-50 MEAN, NSC MEAN) was 79.1 µM, the IC50 (tumor cells; total cell lines used = 42, read-out: MEAN OF ALL LOGIC50'S (converted)) was 100 µM and the IC50 (OVCAR-5 (ovarian); read-out: IC-50 MEAN) was 2.01 µM. For the same compound, the IC50 (OVCAR-5 (ovarian); [12]) was 1.26 µM and the “effectiveness against ovarian cell line OVCAR-5” value (OVCAR-5 (ovarian); in words) was “particularly effective”.
